In experiment [1] the test system is L. donovani axenic amastigotes. Briefly: Growth inhibition of L. donovani axenic amastigotes (three-day tetrazolium dye assay). Format: cell-based, Leishmania donovani. The method, then: (§1) 2000, 110, 223-236, incorporated herein by reference.^14
(§2) Determination of the drug susceptibility of parasites and mammalian cells. The susceptibility of Leishmania donovani amastigote-like parasites (WHO designation: MHOM/SD/62/1S-CL2D) to growth inhibition by compounds of interest was measured in a three-day assay using the tetrazolium dye-based CellTiter reagent (Promega) (Werbovetz, K., Brendle, J., and Sackett, D. (1999) Mol. Biochem. Parasitol. 98, 53-65., and Havens, C., Bryant, N., Asher, L., Lamoreaux, L., Perfetto, S., Brendle, J., and Werbovetz, K. (2000) Mol. Biochem. Parasitol. 110, 223-236). The amastigote medium used in this assay is based on the medium mentioned by Joshi et al. (Joshi, M., Dwyer, D. M., and Nakhasi, H. L. (1993) Mol. Biochem. Parasitol. 58, 345-354). Prior to addition of fetal bovine serum to a final concentration of 20%, this amastigote medium contains 15 mM KCl, 115 mM KH2PO4, 10 mM K2HPO4, 0.5 mM MgSO4, 24 mM NaHCO3, a 1-concentration of RPMI-1640 vitamins and amino acids, 2.0 mM L-glutamine, 22 mM D-glucose, 100 units/mL penicillin, 100 ∝g/ml streptomycin, 0.1 mM adenosine, 1 ∝g/mL folate, and 25 mM MES (pH 5.5). Compounds were tested for their activity against bloodstream-form Trypanosoma brucei brucei (MITat 1.2, variant 221) axenically-cultured in HMI-9 medium , H., and Hirumi, K. (1989) J. Parasitol. 75, 985-989.) following the procedure of Ellis et al. (Ellis, J., Fish, W., Sileghem, M., and McOdimba, F. (1993) Vet. Parasitol. 50, 143-149.) with some modifications. Briefly, 100 μL of late log phase parasites were incubated in 96-well plates (Costar) at an initial concentration of 10^5 cells/ml with or without test compounds at 37° C. in a humidified 5% CO2 atmosphere for 72 hours. Twenty-five μL of a 5 mg/mL solution of MTT (prepared in phosphate buffered saline and filter sterilized) was then added to each well and plates were re-incubated at 37° C. as before for 2 h. One hundred ∝L of 20% SDS lysis buffer (prepared in 50% aqueous DMF) was added to each well and plates were incubated as before for an additional 3-4 h. Optical densities were then measured at 570 nm using SpectraMax Plus microplate reader. […] Assessment of the in vitro sensitivity of T. b. brucei Lab 110 EATRO and P. falciparum strains to compounds was performed by methods described in Donkor et al. (Donkor, I., Assefa, H., Rattendi, D., Lane, S., Vargas, M., Goldberg, B., and Bacchi, C. (2001) Eur. J. Med. Chem. 36, 531-538.) and Guan et al. (Guan, J., Kyle, D., Gerena, L., Zhang, Q., Milhous, W., and Lin, A. (2002) J. Med. Chem. 45, 2741-2748).

Experiment [2] concerns Trypanosoma brucei brucei (MITat 1.2, variant 221). In words: microbe, parasite or virus in culture. The format is cell-based. Conditions: read-out: IC50, T. b. brucei variant 221. As for the experimental part:
as §2

In the next experiment the test system is J774 murine macrophages. Briefly: Toxicity to J774 macrophages (three-day CellTiter assay). Conditions: read-out: IC50, J774 macrophages. The format is cell-based. As for the experimental part:
The toxicity of compounds to J774 murine macrophages and PC3 […] cells was measured in a three-day assay using the CellTiter reagent. […] Macrophages were allowed to adhere for 24 hours, then the medium was removed and replaced with serial dilutions of the test compounds in the DMEM medium mentioned above without phenol red. After 72 hr incubation with the test compounds at 37° C. in a humidified 5% CO2 incubator, cell viability was determined using the CellTiter reagent by adding 20 μL of assay solution to each well. After a 6-7 h incubation at 37° C. to allow for color development, the absorbance of each well at 490 nm was measured in a SpectraMax Pro microplate reader (Molecular Devices). The toxicity of compounds to PC3 cells was assessed in the same manner as for the macrophages, except that the medium used was RPMI 1640 supplemented with 10% heat inactivated fetal calf serum, 2.0 mM L-glutamine, 50 units/mL penicillin, and 50 ∝g/mL streptomycin. IC50 values for the J774 and PC3 assays were determined with the software program SoftMax Pro as described earlier.

The test system of experiment [3] is L. donovani promastigotes. Briefly: Growth inhibition of L. donovani promastigotes. Format: cell-based, Leishmania donovani. To be noted: mean ± standard deviation of at least two independent measurements, read-out: IC50 vs. L. donovani promastigotes.
The subject of another experiment is leishmanial tubulin. The format is biochemical. To be noted: mean ± SD of at least one duplicate measurement, SD of controls 27.6%. The method, then: as §1
Briefly, the tubulin assembly assays are performed as follows. […] The change in turbidity was measured at 351 nm using the SpectraMax Plus microplate reader immediately after GTP addition at 30° C. (for leishmanial tubulin) or 37° C. (for brain tubulin).

[4] abbreviates: unit inferred, three-day tetrazolium dye assay, read-out: IC50, L. donovani axenic amastigotes.
The mark [5] stands for this setting: Trypanosoma brucei, unit inferred.

This note sets out measurements from patent US20050227982A1, “Antileishmanial dinitroaniline sulfanomides with activity against parasite tubulin” (priority 2002, published 2005).

Like-named read-outs stand apart in the source and are kept apart here. Bounds are passed on as bounds.

The term IC50 denotes the concentration at which inhibition is half-maximal. As for `CCCN(CCC)c1c([N+](=O)[O-])cc(S(=O)(=O)Nc2cccc(Cl)c2)cc1[N+](=O)[O-]` [Compound 43, N1-(3-Chloro)phenyl-3,5-dinitro-N4,N4-di-n-propylsulfonilamide], the values for the IC50 (in experiment [1] (setting [4]); in experiment [2] (unit inferred); in the experiment with J774 murine macrophages (unit inferred)) were 5.47 ± 0.1 µM, 0.88 µM and 8.67 ± 0.17 µM, respectively.
As for `NS(=O)(=O)c1cc([N+](=O)[O-])c(N2CCCC2)c([N+](=O)[O-])c1` [Compound 19], the IC50 in experiment [3] was 97.1 ± 53 µM. Also, the “% Inhibition of Leishmanial Tubulin Assembly at 20 μM Compound” value (“% Inhibition” below) in the experiment with leishmanial tubulin is recorded as 57 ± 18%.
Consider `CCCN(CCC)c1c([N+](=O)[O-])cc(S(=O)(=O)Nc2cc(Cl)cc(Cl)c2)cc1[N+](=O)[O-]` [Compound 45, N1-(3,5-Dichloro)phenyl-3,5-dinitro-N4,N4-di-n-propylsulfonilamide], for which the IC50 was found to be 3.71 ± 0.91 µM in experiment [1] (setting [4]), 3.4 µM in experiment [2] (unit inferred) and 5.12 ± 0.35 µM in the experiment on J774 murine macrophages (unit inferred).
For the compound `CCCN(CCC)c1c([N+](=O)[O-])cc(S(=O)(=O)Nc2ccccn2)cc1[N+](=O)[O-]` [Compound 46, N1-(2-Pyridinyl)-3,5-dinitro-N4,N4-di-n-propylsulfonilamide], the results for the IC50 (in experiment [1] (setting [4]); in experiment [2] (unit inferred); in the experiment on J774 murine macrophages (unit inferred)) were 59.7 ± 6.2 µM, 10.9 µM and 44.9 ± 16.3 µM, respectively.
Consider `CCCN(CCC)c1c([N+](=O)[O-])cc(S(=O)(=O)N(C)C)cc1[N+](=O)[O-]` [Compound 34, N1,M1-Dimethyl-3,5-dinitro-N4,N4-di-n-propylsulfonilamide], for which the IC50 was > 100 µM in experiment [1] (setting [4]) and 5.9 µM in experiment [2] (unit inferred).
As to `CCCN(CCC)c1c([N+](=O)[O-])cc(S(=O)(=O)Nc2ccc(C)cc2)cc1[N+](=O)[O-]` [Compound 40, N1-(4Methyl)phenyl-3,5-dinitro-N4,N4-di-n-propylsulfonilamide], the IC50 in experiment [1] (setting [4]) was determined as 32.1 ± 12.7 µM; in experiment [2] (unit inferred) it was 10.5 µM; in the experiment on J774 murine macrophages (unit inferred), 10.5 ± 2 µM.
For the compound `CCCN(CCC)c1c([N+](=O)[O-])cc(S(=O)(=O)Nc2ccc(OC)cc2)cc1[N+](=O)[O-]` [Compound 39, N1-(4-Methoxy)phenyl-3,5-dinitro-N4,N4-di-n-Propylsulfonilamide], the IC50 turned out to be 31.9 ± 14.6 µM in experiment [1] (setting [4]), 20.5 µM in experiment [2] (unit inferred) and 15.2 ± 6.7 µM with J774 murine macrophages (unit inferred).
For `CCCN(CCC)c1c([N+](=O)[O-])cc(S(=O)(=O)NCC)cc1[N+](=O)[O-]` [Compound 35, N1-Ethyl-3,5-dinitro-N4,N4-di-n-propylsulfonilamide], the IC50 in experiment [1] (setting [4]) is > 100 µM; in experiment [2] (unit inferred), 4 µM.
Regarding `CCCN(CCC)c1c([N+](=O)[O-])cc(S(=O)(=O)Nc2ccc(Cl)cc2)cc1[N+](=O)[O-]` [Compound 41, N1-(4-Chloro)phenyl-3,5dinitro-N4,N4-di-n-propylsulfonilamide], the IC50 came to 13.3 ± 3 µM in experiment [1] (setting [4]), 9.5 µM in experiment [2] (unit inferred) and 9.13 ± 3.81 µM with J774 murine macrophages (unit inferred).
Consider `CCCN(CCC)c1c([N+](=O)[O-])cc(S(=O)(=O)NC)cc1[N+](=O)[O-]` [Compound 33, N1-Methyl-3,5-dinitro-N4,N4di-n-propylsulfonilamide], for which the IC50 was > 100 µM in experiment [1] (setting [4]) and 4.6 µM in experiment [2] (unit inferred).
Regarding `CCCN(CCC)c1c([N+](=O)[O-])cc(S(=O)(=O)Nc2ccc(Cl)c(Cl)c2)cc1[N+](=O)[O-]` [Compound 44, N1-(3,4-Dichloro)phenyl-3,5-dinitro-N4,N4-di-n-propylsulfonilamide], the IC50 in experiment [1] (setting [4]) stood at 5.03 ± 0.8 µM; in experiment [2] (unit inferred), 6.7 µM; in the experiment with J774 murine macrophages (unit inferred) it was 7.19 ± 0.59 µM.
As for `CCCN(CCC)c1c([N+](=O)[O-])cc(S(=O)(=O)NC(C)C)cc1[N+](=O)[O-]` [Compound 38, N1-Isopropyl-3,5-dinitro-N4,N4-di-n-propylsulfonilamide], the results for the IC50 in experiment [1] (setting [4]) and in experiment [2] (unit inferred) were 42.8 ± 2.3 µM and 2.5 µM, respectively.
For `N=C(N)c1ccc(OCCCCCOc2ccc(C(=N)N)cc2)cc1` [Pentamidine, reference compound], the IC50 amounted to 1.61 ± 0.22 µM in experiment [3] (Leishmania donovani); 2 ± 0.06 µM in experiment [1] (Leishmania donovani, 72 h, unit inferred, three-day tetrazolium dye assay, read-out: IC50, L. donovani axenic amastigotes); 2 ± 0.06 µM in experiment [1] (Leishmania donovani, Table 1, mean ± standard deviation of at least two independent measurements, read-out: IC50 vs. L. donovani amastigotes); 0.0194 ± 0.0069 µM in experiment [2] (setting [5]).
Take `CCCCN(CCCC)c1c([N+](=O)[O-])cc(S(=O)(=O)Nc2ccccc2)cc1[N+](=O)[O-]` [Compound 32, N1-Phenyl-3,5-dinitro-N4,N4-di-n-butylsulfonilamide]: the figures for the IC50 (in experiment [1] (setting [4]); in experiment [2] (unit inferred); in the experiment with J774 murine macrophages (unit inferred)) were 2.57 ± 0.25 µM, 0.1 µM and 11.9 ± 0.5 µM, respectively.
`CCCN(CCC)c1c([N+](=O)[O-])cc(C(N)=NO)cc1[N+](=O)[O-]` [Compound 29]: the IC50 in experiment [3] was > 100 µM. The “% Inhibition” value with leishmanial tubulin worked out at 35 ± 7%.
With `CCCN(CCC)c1c([N+](=O)[O-])cc(C#N)cc1[N+](=O)[O-]` [Compound 27], in experiment [3], the IC50 was > 100 µM. Besides, the “% Inhibition” value in the experiment with leishmanial tubulin is 25 ± 17%.
`CCCN(CCC)c1c([N+](=O)[O-])cc(S(=O)(=O)N(CC)CC)cc1[N+](=O)[O-]` [Compound 36, N1,N1-Diethyl-3,5-dinitro-N4,N4-di-n-propylsulfonilamide]: the IC50 in experiment [1] (setting [4]) is 26.7 ± 0.4 µM; in experiment [2] (unit inferred), 10.2 µM.
On to `CCN(CC)c1c([N+](=O)[O-])cc(S(=O)(=O)Nc2ccccc2)cc1[N+](=O)[O-]` [Compound 31, N1-Phenyl-3,5-dinitro-N4,N4-di-n-ethylsulfonilamide], for which the half-inhibitory concentration (IC50) is 10.6 ± 2.6 µM in experiment [1] (setting [4]), 1.9 µM in experiment [2] (unit inferred) and 47.7 ± 1.6 µM with J774 murine macrophages (unit inferred).
In the case of `Cc1ccc(C(=O)Nc2ccc(S(=O)(=O)O)c3cc(S(=O)(=O)O)cc(S(=O)(=O)O)c23)cc1NC(=O)c1cccc(NC(=O)Nc2cccc(C(=O)Nc3cc(C(=O)Nc4ccc(S(=O)(=O)O)c5cc(S(=O)(=O)O)cc(S(=O)(=O)O)c45)ccc3C)c2)c1` [Suramin, reference compound], in experiment [2] (setting [5]), the IC50 came out at 0.233 ± 0.05 µM.
In the case of `CCCNc1c([N+](=O)[O-])cc(S(N)(=O)=O)cc1[N+](=O)[O-]` [Compound 13], the IC50 in experiment [3] was 67 ± 18.4 µM. In the experiment with leishmanial tubulin, the “% Inhibition” value worked out at 43 ± 19%.
For `CCCN(CCC)c1c([N+](=O)[O-])cc(S(=O)(=O)Nc2cccc(OC)c2)cc1[N+](=O)[O-]` [Compound 30, N1-(3-Methoxy)phenyl-3,5-dinitro-N4,N4-di-n-propylsulfonilamide], the IC50 in experiment [1] (setting [4]) amounted to 8.11 ± 3.33 µM; in experiment [2] (unit inferred) it was 0.5 µM; in the experiment with J774 murine macrophages (unit inferred), 25.3 ± 3.8 µM.
On to “N1-(3-Methyl)phenyl-3,5-dinitro-N4,N4-di-n-propylsulfonilamide [Compound 42]”, for which the IC50 in experiment [1] (read-out: IC50, L. donovani axenic amastigotes) was found to be 22.7 ± 0.8 µM; in experiment [2] it was 0.92 µM; in the experiment on J774 murine macrophages it was 15.8 ± 2.1 µM.
